Measurements reported in patent US20080241870A1, “Composition For Creating an Artificial Bone Marrow Like Environment and Use Thereof” (NATIONAL CENTRE FOR CELL SCINECES, priority 2005, published 2008).

What was measured:
Format in all cases: cell-based, human
CD34+ cells [1] = test: self renewal: CD34+ cell number after 48 hours on ABME; Jagged1 expression
Procedure: Mesenchyme cells were grown on a sterile 1 cm×1 cm glass coverslip to near confluence and were covered with a treatment medium containing 10 ngml^−1 TGF-β1 and were incubated for 18 hours in a humidified sterile atmosphere and 5% CO2. The coverslips were then washed with PBS, and the ABME thus created were covered with a suspension of 2×10^5 CD34^+ cells in 0.2 ml of IMDM with 20% serum. The cells were washed after one hour and the bound cells were covered with medium with 20% serum containing 0.8% methyl cellulose and growth factors. The change in CD34^+ cell number after 48 hours was monitored with a CD34^+ specific antibody (clone HPCA1, Becton Dickinson, USA).

CD34+ cells [2] = test: adhesion of CD34+ cells to ABME on coverslips; details: 10 ngml^-1, 18 hours; CD34+/MNC contact 1 hour; vs reference coverslip
Procedure: Mesenchyme cells were grown on a sterile 1 cm×1 cm glass coverslip to near confluence and were covered with a treatment medium containing 10 ngml^−1 TGF-β1 and were incubated for 18 hours in a humidified sterile atmosphere and 5% CO2. The coverslips were then washed with PBS, and the ABME thus created were covered with a suspension of 2×10^6 MNC or 2×10^5 CD34^+ cells in 0.2 ml of IMDM with 20% serum. After 1 hour at 37° C., the coverslips were washed with PBS and the cells were fixed and stained with a CD34^+ specific antibody (clone HPCA1, Becton Dickinson, USA). The number of CD34^+ cells attached were counted and compared to the number of similar cells that were attached in a parallel reference experiment where TGF-β1 was not used. […] It may be seen from FIGS. 6(d-f) that there is an increased adhesion of CD34^+ cells to mesenchymal cells when mesenchymal cells are treated with TGF-β1.

HIF1α = HIF1α immunostaining of mesenchymal cells; details: immunostaining vs control cells; FIG. 11a
Excerpt: Mesenchymal cells were processed for ABME formation as per details given in experiment #1 above using a biological modulator namely TGFbeta1. The cells were fixed after the indicated time periods and immuno-stained with an antibody to HIF1α which is a specific transcription factor related to hypoxia.

CD34+ SPC = test: lineage commitment: HCFA with CD34+ SPC, count of mature blood cells after 14 days; details: 10 ngml^-1, 18 hours; HCFA 14 days; FIG. 8a
Procedure: The mesenchyme cells (5×10^4 cells per well in a 24 well dish) were grown in IMDM plus 20% fetal bovine serum until they were nearly confluent. The medium was removed and was washed 2× with PBS. Two different ABME were prepared by using two biological hematomodulators (TGFβ1 10 ngml^−1, bFGF 10 ngml^−1, 18 hours) separately. The ABME formed was washed 2× with PBS and was covered with 0.2 ml of a suspension of CD34^+ SPC cells (10^5 ml−1) for 1 hour at 37° C. All the cells of the dish were then harvested after washing and were used in a HCFA. After 14 days, the mature blood cells formed were harvested and an aliquot of the suspension was examined under the microscope to identify and count the mature lymphoid and myeloid cells.
The mesenchyme cells (5×10^4 cells per well in a 24 well dish) were grown in IMDM plus 20% fetal bovine serum until they were nearly confluent. The medium was removed and was washed 2× with PBS. The cells in one well were treated with a DiBromo derivative of the Calcium ion chelator BAPTA (5 micromolar) for one hour whereas another well received only the medium without the BAPTA derivative. After 1 hour of incubation at 37° C., TGFβ1 was added to both the wells (10 ng ml−1) and the incubation was continued for a further period of 18 hours. The ABME formed in both wells were washed and were used for HCFA using CD34^+ SPC. After 14 days the mature blood cells were harvested and were quantitated for the cells of erythroid and myeloid lineage.

MNC = test: self renewal: GEMM colony formation of MNC mixed with doses of ABME cells
Procedure: The mesenchyme cells were grown in IMDM plus 20% fetal bovine serum until they were nearly confluent. The medium was removed and was washed 2× with PBS. ABME was prepared by using a biological hematomodulator namely, TGF beta 1(20 ng ml−1).The ABME formed was washed 2× with PBS and the cells were dissociated with a non-enzymatic solution (Sigma). A fixed number of MNC namely 2×10^5 were mixed with various doses of dissociated mesenchymal cells (2×10^4, 5×10^4 and 1×10^5) and incubated for 1 hour. At the end of the incubation, cells were processed for hematopoietic colony formation assays (HCFA). […] Secondly the lowest concentration of cells from ABME (2×10^4) was more efficient in the stimulation of GEMM formation than the highest concentration (1×10^5) of mesenchymal cells indicating a nearly 10 fold increase in the efficiency.

mesenchymal cells = test: Hypoxy probe incorporation in ABME under normoxic conditions; details: 200 μM Hypoxy probe, 48 hours; FIG. 11b
Procedure: Mesenchymal cells were processed for ABME formation as per details given in Example 7(a) above using a biological modulator namely TGFbeta1 and were incubated with 200 μM Hypoxy probe (Chemicon, USA) for 48 hours. The cells were fixed and immuno-stained with an antibody specific for detection of the label (Chemicon).

mesenchyme cells = test: SDF-1α release / in vitro homing of CD34+ SPC (conditioned medium of treated mesenchyme cells); details: 10 ngml^-1, 4 hours treatment, conditioned medium after 18 hours; vs untreated reference
Procedure: 5×10^5 mesenchyme cells were grown on a 35 mm diameter Petri dish (Becton Dickinson, USA) in IMDM containing 20% serum. After the cells were confluent, the medium was removed, the cells were washed 2× with Phosphate buffered saline (GIBCO-BRL) (PBS) and the medium was changed to treatment medium containing 10 ngml^−1 of TGFβ1 and the dishes were returned to standard cell culture environment at 37° C. in 5% CO2. After 4 hours, the treatment medium was removed, the cells were washed with PBS and were covered with 1 ml of IMDM containing 0.5% serum and incubation at 37° C. in 5% CO2 was continued. After 18 hours, the conditioned medium was collected and was assayed for its ability to support in vitro homing of CD34^+ SPC. In another parallel experiment, an equal number of mesenchymal cells were employed, where TGF-β1 was not used and the conditioned medium obtained from this experiment was used as a reference for comparison. […] As shown in FIGS. 6(a-b) untreated mesenchymal cells show no or marginal homing as compared to mesenchymal cells treated with TGF-β1. The homing could be modulated in this case either by adding suitable amounts of a neutralizing antibody to SDF-1α or to its receptor CXCR-4 to neutralize its effects on chemo-attraction of SPC or by destroying the gradient by exogenous addition of SDF1α indicating the specificity of the process.

HumanTransforming Growth Factor beta1 [TGFβ1]
CD34+ cell proliferation (CD34+ cells [1]; 10 ngml^-1, 18 hours, CD34+ number after 48 hours, vs no TGFβ1, FIG. 10b): supported more CD34^+ cell proliferation | Jagged1 amount in ABME (CD34+ cells [1]; compared to mesenchyme cells, FIG. 10c): significantly more amounts of the promoter of self renewal, Jagged1 | number of CD34+ cells attached to ABME (CD34+ cells [2]): significantly more number of CD34^+ cells attached | HIF1α expression (HIF1α): clear nuclear expression of HIF1α | mature lymphoid and myeloid cells formed (CD34+ SPC): supported more myeloid cell formation | GEMM colony formation (MNC; 20 ng ml-1, 2×10^5 MNC with 2×10^4, 5×10^4, 1×10^5 ABME cells vs control mesenchymal cells, FIG. 10a): clear dose dependent increase in GEMM colony formation | increase in efficiency of GEMM stimulation (MNC; 2×10^4 ABME cells vs 1×10^5 mesenchymal cells): ~10 fold | Hypoxy probe label incorporation (mesenchymal cells): high incorporation of the label | SDF-1α release from mesenchymal cells (mesenchyme cells): significantly more amounts of SDF-1α was released
